According to the supplement of paper PMC8671470:
± gives the standard deviation of the averaged measurements.

Assays:
Details in all cases: 72 h
[1] = test system: myeloid leukemia patient primary cells Pat.7; assay: cell viability (% survival relative to DMSO control); higher = less cytotoxic
In short: (§1)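 Mononuclear cells from patients with AML or CML were thawed, purified on Ficoll and placed in RPMI 1640 with 10% FBS at 10,000 cells/well on 384-well plates. The plates came pre-printed with 70 compounds at five tenfold concentrations spanning 1–10,000 nM, in duplicate, and cells were exposed for 72 h. CellTiter-Glo gave viability, scaled between DMSO wells and wells with 10 μM proteasome inhibitor. Where reported, area under the curve was obtained from log-logistic fits with four parameters using the drc and PharmacoGx R packages.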

[2] = test system: myeloid leukemia patient primary cells Pat.4; assay: as above
In short: as §1

[3] = test system: myeloid leukemia patient primary cells Pat.13; assay: as above
In short: as §1

[4] = test system: myeloid leukemia patient primary cells Pat.5; assay: as above
In short: as §1

[5] = test system: myeloid leukemia patient primary cells Pat.14; assay: as above
In short: as §1

[6] = test system: myeloid leukemia patient primary cells Pat.6; assay: as above
In short: as §1

[7] = test system: myeloid leukemia patient primary cells Pat.9; assay: as above
In short: as §1

[8] = test system: myeloid leukemia patient primary cells Pat.1; assay: as above
In short: as §1

[9] = test system: myeloid leukemia patient primary cells Pat.11; assay: as above
In short: as §1

[10] = test system: myeloid leukemia patient primary cells Pat.3; assay: as above
In short: as §1

[11] = test system: myeloid leukemia patient primary cells Pat.12; assay: as above
In short: as §1

[12] = test system: myeloid leukemia patient primary cells Pat.2; assay: as above
In short: as §1

[13] = test system: myeloid leukemia patient primary cells Pat.8; assay: as above
In short: as §1

[14] = test system: myeloid leukemia patient primary cells Pat.15; assay: as above
In short: as §1

[15] = test system: myeloid leukemia patient primary cells Pat.10; assay: as above
In short: as §1

HL-60 [16] = assay: area under dose-response curve (viability, 1 nM-10 uM) (fraction (0-1)); higher = more sensitive
In short: (§2)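 HL-60 cells grown in RPMI 1640 with 10% FBS were rescreened against the full library in 384-well plates, in duplicate, at five tenfold concentrations from 1 to 10,000 nM, alongside DMSO or 100 nM of one of three metabolic inhibitors for 72 h at 37 °C, 5% CO2. Reference wells contained DMSO or 10 μM proteasome inhibitor. Viability was read with CellTiter-Glo and normalised to these reference wells, and where reported, area under the curve was taken from four-parameter log-logistic fits in drc and PharmacoGx.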

HL-60 [17] = assay: cell viability (% survival relative to DMSO control); higher = less cytotoxic
In short: as §2

## O=C(/C=C/c1cccnc1)NCCCCC1CCN(C(=O)c2ccccc2)CC1 [Daporinad]
[1]; 1 nM
  cell viability: 6.69%
[1]; 10 nM
  cell viability: < 0%
[1]; 100 nM
  cell viability: < 0%
[1]; 1000 nM
  cell viability: < 0%
[1]; 10000 nM
  cell viability: < 0%
[2]; 1 nM
  cell viability: 38.2%
[2]; 10 nM
  cell viability: 3.86%
[2]; 100 nM
  cell viability: 2.67%
[2]; 1000 nM
  cell viability: 2.08%
[2]; 10000 nM
  cell viability: 0.709%
[3]; 1 nM
  cell viability: 95%
[3]; 10 nM
  cell viability: 34.4%
[3]; 100 nM
  cell viability: 9.16%
[3]; 1000 nM
  cell viability: 3.22%
[3]; 10000 nM
  cell viability: 7.15%
[4]; 1 nM
  cell viability: 0.265%
[4]; 10 nM
  cell viability: < 0%
[4]; 100 nM
  cell viability: 9.08%
[4]; 1000 nM
  cell viability: < 0%
[4]; 10000 nM
  cell viability: < 0%
[5]; 1 nM
  cell viability: 17.1%
[5]; 10 nM
  cell viability: 1.32%
[5]; 100 nM
  cell viability: 2.09%
[5]; 1000 nM
  cell viability: < 0%
[5]; 10000 nM
  cell viability: 0.671%
[6]; 1 nM
  cell viability: 60.3%
[6]; 10 nM
  cell viability: 51.7%
[6]; 100 nM
  cell viability: 24.6%
[6]; 1000 nM
  cell viability: 25.6%
[6]; 10000 nM
  cell viability: 19.4%
[7]; 1 nM
  cell viability: 0.773%
[7]; 10 nM
  cell viability: < 0%
[7]; 100 nM
  cell viability: 0.492%
[7]; 1000 nM
  cell viability: 0.773%
[7]; 10000 nM
  cell viability: 0.773%
[8]; 1 nM
  cell viability: 98.2%
[8]; 10 nM
  cell viability: 64.2%
[8]; 100 nM
  cell viability: 20.9%
[8]; 1000 nM
  cell viability: 16.9%
[8]; 10000 nM
  cell viability: 11%
[9]; 1 nM
  cell viability: 94.7%
[9]; 10 nM
  cell viability: 10.9%
[9]; 100 nM
  cell viability: 1.05%
[9]; 1000 nM
  cell viability: 2.36%
[9]; 10000 nM
  cell viability: 0.862%
[10]; 1 nM
  cell viability: 3.7%
[10]; 10 nM
  cell viability: 2.72%
[10]; 100 nM
  cell viability: 2.93%
[10]; 1000 nM
  cell viability: 3.29%
[10]; 10000 nM
  cell viability: 2.8%
[11]; 1 nM
  cell viability: 91.5%
[11]; 10 nM
  cell viability: 32.2%
[11]; 100 nM
  cell viability: 8.2%
[11]; 1000 nM
  cell viability: 5.73%
[11]; 10000 nM
  cell viability: 3.19%
[12]; 1 nM
  cell viability: 91.1%
[12]; 10 nM
  cell viability: 30.5%
[12]; 100 nM
  cell viability: 11.7%
[12]; 1000 nM
  cell viability: 9.71%
[12]; 10000 nM
  cell viability: 6.63%
[13]; 1 nM
  cell viability: 98.3%
[13]; 10 nM
  cell viability: 11%
[13]; 100 nM
  cell viability: 4.49%
[13]; 1000 nM
  cell viability: 10.4%
[13]; 10000 nM
  cell viability: 0.503%
[14]; 1 nM
  cell viability: 80.9%
[14]; 10 nM
  cell viability: 24.2%
[14]; 100 nM
  cell viability: 0.879%
[14]; 1000 nM
  cell viability: 1.32%
[14]; 10000 nM
  cell viability: 0.659%
[15]; 1 nM
  cell viability: 28.5%
[15]; 10 nM
  cell viability: 2.87%
[15]; 100 nM
  cell viability: < 0%
[15]; 1000 nM
  cell viability: 2.87%
[15]; 10000 nM
  cell viability: < 0%
HL-60 [16]; co-treatment: AZD3965 100 nM
  area under dose-response curve: 0.825
HL-60 [16]; co-treatment: DMSO vehicle
  area under dose-response curve: 0.78
HL-60 [16]; co-treatment: GSK2194069 100 nM
  area under dose-response curve: 0.79
HL-60 [16]; co-treatment: pictilisib 100 nM
  area under dose-response curve: 0.75
HL-60 [17]; 0.001 µM, co-treatment: AZD3965 100 nM
  cell viability: 101 ± 1.5%
HL-60 [17]; 0.001 µM, co-treatment: DMSO vehicle
  cell viability: 93.6 ± 1.4%
HL-60 [17]; 0.001 µM, co-treatment: GSK2194069 100 nM
  cell viability: 86.2 ± 22%
HL-60 [17]; 0.001 µM, co-treatment: pictilisib 100 nM
  cell viability: 89.7 ± 58%
HL-60 [17]; 0.01 µM, co-treatment: AZD3965 100 nM
  cell viability: 17.8 ± 2%
HL-60 [17]; 0.01 µM, co-treatment: DMSO vehicle
  cell viability: 37.7 ± 8.6%
HL-60 [17]; 0.01 µM, co-treatment: GSK2194069 100 nM
  cell viability: 31.1 ± 15%
HL-60 [17]; 0.01 µM, co-treatment: pictilisib 100 nM
  cell viability: 42 ± 8.7%
HL-60 [17]; 0.1 µM, co-treatment: AZD3965 100 nM
  cell viability: 1.54 ± 0.52%
HL-60 [17]; 0.1 µM, co-treatment: DMSO vehicle
  cell viability: 3.2 ± 0.55%
HL-60 [17]; 0.1 µM, co-treatment: GSK2194069 100 nM
  cell viability: 2.41 ± 0.44%
HL-60 [17]; 0.1 µM, co-treatment: pictilisib 100 nM
  cell viability: 2.3 ± 1.4%
HL-60 [17]; 1 µM, co-treatment: AZD3965 100 nM
  cell viability: 0.351 ± 0.32%
HL-60 [17]; 1 µM, co-treatment: DMSO vehicle
  cell viability: 0.816 ± 0.52%
HL-60 [17]; 1 µM, co-treatment: GSK2194069 100 nM
  cell viability: 0.71 ± 0.089%
HL-60 [17]; 1 µM, co-treatment: pictilisib 100 nM
  cell viability: 0.651 ± 0.56%
HL-60 [17]; 10 µM, co-treatment: AZD3965 100 nM
  cell viability: 0.166 ± 0.62%
HL-60 [17]; 10 µM, co-treatment: DMSO vehicle
  cell viability: 0.766 ± 0.1%
HL-60 [17]; 10 µM, co-treatment: GSK2194069 100 nM
  cell viability: 1.09 ± 0.17%
HL-60 [17]; 10 µM, co-treatment: pictilisib 100 nM
  cell viability: 2.01 ± 1.5%
